Reference: patent US7833551B2, “Inhibition of biogenic sulfide production via biocide and metabolic inhibitor combination” (ConocoPhillips Company, priority 2004, dated 2010)

Tested on: sulfate-reducing bacterial (SRB) consortium
Assay: Inhibition of sulfate reduction and sulfide production in SRB cultures for one month (MIC and biocide/metabolic inhibitor combinations)
Type: cell-based, sulfate-reducing bacteria (Coleville SRB enrichment)
Details: 720 h; minimum concentration necessary to prevent sulfide production by SRB for 30 days after contact; compound alone; certain test conditions; read-out: minimum inhibitory concentration (MIC)
Description: The sulfate-reducing bacterial (SRB) consortium used in this study was enriched from produced water obtained from the Coleville oil field near Kindersely, Sadkatchewan, Canada. […] The SRB consortium was maintained by weekly transfer in sPGC medium, and incubated at 30° C. […] The sPGC contained the following components per 1 liter of distilled water: 7 g NaCl; 1.2 g MgCl26H2O; 0.5 g KH2PO4; 1 g NH4Cl; 4.5 g Na2SO4; 0.042 g CaCl22H2O; 0.03 g MgSO47H2O; 0.004 g FeSO47H2O; 0.28 g sodium citrate; 10 g 60% sodium lactate; 1 g yeast extract; and a trace amount of rezazurin.
The cultures used in this study were grown in 100 mL of modified Coleville synthetic brine medium (mCSB) in 160-ml serum bottles, with a headspace of 5% H2, 10% CO2 balance N2. […]
Sulfate was measured using the turbidimetric method described in: American Public Health Association, Standard Methods for the Examination of Water and Wastewater. […]
For each biocide and metabolic inhibitor tested, the minimum inhibitory concentration (MIC; the minimum amount of biocide required to inhibit sulfate reduction and sulfide production in the SRB culture for one month) was determined.

O=CCCCC=O [glutaraldehyde]
MIC: 5 mM
